Tests used:
Assay in all cases: spectrophotometric GSH-CDNB conjugation, nonlinear regression
Format in all cases: biochemical
Conditions in all cases: GSH fixed 1.0 mM; 50 mM potassium phosphate pH 6.5; 25 °C; read-out: K mCDNB /
[1] = target: T1, SbGSTU13 (Salix babylonica, UniProt A0A4Y5R0L5)
T1 construct: gene GSTU13; full length, 6xHis-tag (pET30a), E. coli BL21 (DE3), Ni-Sepharose
T1 sequence (A0A4Y5R0L5 1-222): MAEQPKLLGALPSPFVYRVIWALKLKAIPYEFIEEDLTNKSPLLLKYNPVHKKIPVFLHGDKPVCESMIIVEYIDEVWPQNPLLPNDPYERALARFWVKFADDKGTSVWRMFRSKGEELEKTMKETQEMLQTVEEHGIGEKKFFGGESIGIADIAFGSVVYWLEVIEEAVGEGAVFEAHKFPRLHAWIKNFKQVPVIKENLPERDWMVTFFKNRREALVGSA
Excerpt: spectrophotometric GSH-CDNB conjugation, nonlinear regression on SbGSTU13

[2] = target: T2, SbGSTU10 (Salix babylonica, UniProt A0A4Y5QZX3)
T2 construct: gene GSTU10; full length, 6xHis-tag (pET30a), E. coli BL21 (DE3), Ni-Sepharose
Excerpt: spectrophotometric GSH-CDNB conjugation, nonlinear regression on SbGSTU10

[3] = target: T3, SbGSTU1 (Salix babylonica, UniProt A0A4Y5R2M7)
T3 construct: gene GSTU1; full length, 6xHis-tag (pET30a), E. coli BL21 (DE3), Ni-Sepharose
Excerpt: spectrophotometric GSH-CDNB conjugation, nonlinear regression on SbGSTU1

[4] = target: T4, SbGSTU12 (Salix babylonica, UniProt A0A4Y5R0C1)
T4 construct: gene GSTU12; full length, 6xHis-tag (pET30a), E. coli BL21 (DE3), Ni-Sepharose
Excerpt: spectrophotometric GSH-CDNB conjugation, nonlinear regression on SbGSTU12

[5] = target: T5, SbGSTU3 (Salix babylonica, UniProt A0A4Y5R0K8)
T5 construct: gene GSTU3; full length, 6xHis-tag (pET30a), E. coli BL21 (DE3), Ni-Sepharose
T5 sequence (A0A4Y5R0K8 1-220): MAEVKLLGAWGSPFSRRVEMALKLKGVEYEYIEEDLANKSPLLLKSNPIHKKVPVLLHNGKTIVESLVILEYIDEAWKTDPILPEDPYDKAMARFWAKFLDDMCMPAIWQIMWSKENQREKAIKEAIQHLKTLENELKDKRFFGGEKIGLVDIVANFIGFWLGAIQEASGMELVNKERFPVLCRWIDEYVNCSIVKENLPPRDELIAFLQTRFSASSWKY
Excerpt: spectrophotometric GSH-CDNB conjugation, nonlinear regression on SbGSTU3

[6] = target: T6, SbGSTU7 (Salix babylonica, UniProt A0A4Y5R087)
T6 construct: gene GSTU7; full length, 6xHis-tag (pET30a), E. coli BL21 (DE3), Ni-Sepharose
Excerpt: spectrophotometric GSH-CDNB conjugation, nonlinear regression on SbGSTU7

T3 sequence (A0A4Y5R2M7 1-219): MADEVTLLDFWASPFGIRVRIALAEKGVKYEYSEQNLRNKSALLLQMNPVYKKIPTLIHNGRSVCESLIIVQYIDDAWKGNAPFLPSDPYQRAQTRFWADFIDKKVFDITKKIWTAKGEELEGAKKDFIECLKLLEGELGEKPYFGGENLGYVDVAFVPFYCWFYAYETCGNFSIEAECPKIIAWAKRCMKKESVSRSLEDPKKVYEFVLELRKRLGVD
T2 sequence (A0A4Y5QZX3 1-220): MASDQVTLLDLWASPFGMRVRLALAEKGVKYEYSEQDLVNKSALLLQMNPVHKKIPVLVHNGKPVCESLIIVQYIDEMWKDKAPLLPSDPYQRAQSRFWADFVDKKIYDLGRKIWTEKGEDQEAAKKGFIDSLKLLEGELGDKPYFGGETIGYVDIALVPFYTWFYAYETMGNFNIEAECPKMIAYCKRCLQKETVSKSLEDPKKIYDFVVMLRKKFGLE
T6 sequence (A0A4Y5R087 1-219): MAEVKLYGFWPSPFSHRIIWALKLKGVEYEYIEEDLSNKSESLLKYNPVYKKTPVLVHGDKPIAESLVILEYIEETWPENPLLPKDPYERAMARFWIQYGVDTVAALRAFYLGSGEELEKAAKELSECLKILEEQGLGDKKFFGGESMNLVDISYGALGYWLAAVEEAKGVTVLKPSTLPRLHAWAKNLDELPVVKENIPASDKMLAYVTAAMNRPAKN
T4 sequence (A0A4Y5R0C1 1-222): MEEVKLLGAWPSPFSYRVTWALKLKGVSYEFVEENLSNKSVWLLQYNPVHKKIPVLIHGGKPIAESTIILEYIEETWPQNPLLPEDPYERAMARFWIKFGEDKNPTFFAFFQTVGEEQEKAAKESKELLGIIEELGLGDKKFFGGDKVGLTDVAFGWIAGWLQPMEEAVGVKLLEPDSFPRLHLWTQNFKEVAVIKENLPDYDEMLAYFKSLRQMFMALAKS

O=[N+]([O-])c1ccc(Cl)c([N+](=O)[O-])c1 [CDNB, 1-chloro-2,4-dinitrobenzene]
Km [1]: 1270 ± 62 µM | Km [2]: 156 ± 2 µM | Km [3]: 201 ± 4 µM | Km [4]: 2140 ± 272 µM | Km [5]: 1000 ± 33 µM | Km [6]: 2070 ± 165 µM

— PMC7145991, “Biochemical Functions of Glutathione S-Transferase Family of Salix babylonica” (Frontiers in Plant Science, 2020)
